# Measurements as given in US6743446B2, “Methods for stabilizing biologically active agents encapsulated in biodegradable controlled-release polymers” (The Ohio State University Research Foundation, priority 1999, dated 2004).
# “And” between values parts separate entries of the source, which are not always exact repeats. Equal entries are not always repeated. Structures can show the parent of a compound that is named as a salt. Where two headings read alike, the source gives them in different places.
# Assays:
# [1] = pH measurement of saturated basic salts in water; format: physicochemical; settings: excess basic salt suspended in water, 37° C., 7 days
# Experimental: The suspension was then incubated at 37° C. for 7 days. The pH of the supernatant was determined with a Corning 430 pH meter (Corning Inc., NY).
# [2] = VCR and VBL stability and release in PLGA microspheres by HPLC; format: physicochemical
# Experimental: All other reagents and solvents were of analytical grade or purer and purchased from commercial suppliers. Microspheres Preparation Microspheres were prepared by a standard oil-in-oil emulsion-solvent extraction method (17). […] The resulting solution or suspension was added drop-wise to 25 ml of oil (95% cottonseed oil and 5% Span 85 emulsifier) stirred at 500 rpm and room temperature. After 2.5 h of microsphere hardening. 40 ml of petroleum ether (bp: 50 to 100° C.) were added to the emulsion to extract CAN. The emulsion was stirred for additional 15 min, the particles were collected by filtration, and washed 3 times with petroleum ether. The hardened microspheres were flash-frozen with liquid nitrogen and lyophilized with a Labconco Freezone 6 system for 1 day.
# The HPLC system consisted of the following: a 510 pump, a 717 Plus autosampler, and a 486 UV detector (waters, Milford, Mass.). […] The mobile phase was composed of aqueous solution of sodium phosphate (10 mM) and methanol 40:60 (v/v) (pH 7.0). For UV detection, the wavelength was set to 298 nm.
# Drug release from microspheres was carried out in PBS (127 mM NaCl, 3 mM KCl, 8 mM Na2HPO4, 1 mM KH2PO4, pH 7.4) containing Tween 80 (0.02% w/w/) (PBST) at 37° C. under perfect sink conditions. […] Microspheres were weighed and dissolved in a 50% (v/v) ACN water solution. The precipitated polymer and salts were spun down by brief centrifugation. An aliquot of the supernatant containing drug was removed and analyzed by HPLC.
# [3] = reference (23); cited from earlier work
# [4] = pH of the release medium during incubation of polymer devices; format: physicochemical; settings: 3% BSA/PLGA50/50 (0.20 dl/g) microspheres with 3% base, after 35 days
# Source text: This effect was confirmed by changes in pH in the release medium and alteration of the PLGA degradation rate.
# The pH of the release medium was monitored by a Corning 430 pH meter (Corning Inc., NY) at each sampling interval.
# [5] = pH of saturated basic salt suspension after addition of 1 N HCl; format: physicochemical; settings: acid added to the saturated suspension with excess salt, 37° C., 3 days
# Source text: The difference of the neutralization effect from the salts is also reflected in the different water contents of their PLGA devices.
# [6] = aqueous solution; cited from earlier work
pH of saturated solution [1],drug degraded to the basic product during microsphere preparation ([2]; VCR PLGA microspheres with co-encapsulated base),pH of the release medium [4],pH after addition of 100 μl of 1 N HCl [5],"stability of encapsulated drug ([2]; PLGA (50% D,L lactide content) microspheres)","drug remaining intact ([2]; VCR PLGA microspheres with ZnCO3, after 3 weeks)","drug remaining intact ([2]; VCR PLGA microspheres with ZnCO3, after 4 weeks)","drug remained in its native form ([2]; VCR in PLGA microspheres without base, 14 days incubation at 37° C.)",SMILES,pH of saturated solution [3],pH of maximum stability [6]
9.97 and 9.76,12%,< 4.5,8.99,,,,,[Mg+2].[OH-].[OH-] [Mg(OH)2],9.8,
,,,,becomes unstable,97%,92%,23%,"CC[C@]1(O)C[C@H]2CN(CCc3c([nH]c4ccccc34)[C@@](C(=O)OC)(c3cc4c(cc3OC)N(C=O)[C@H]3[C@@](O)(C(=O)OC)[C@H](OC(C)=O)[C@]5(CC)C=CCN6CC[C@]43[C@@H]65)C2)C1 [VCR, Vincristine sulfate]",,~4.5
